Data: patent publication US20180343857A1, “BIOSOLUBILIZER” (SOLIANCE, priority 2012, published 2018)
Counter-ions that a name gives are not always drawn.

System: Avena Fatua
Test: Biological effectiveness of glyphosate with extemporaneous adjuvant (biomass reduction curves)
Format: in vivo
Settings: Avena Fatua in pots; glyphosate 50 to 650 g equivalent acid per hectare; dry biomass 3 weeks after treatment; R = 1 for herbicide without adjuvant
Source text: The preparation of example 2.4 containing terpenic alcohols solubilised by sophorolipids is used as an extemporaneous adjuvant of glyphosate. Glyphosate is a non-selective herbicide, the definition and use of which are described in particular in “The biochemistry and uses of pesticides, 2nd edition” by Kenneth A. Hassall published by VCH (1990). An extemporaneous adjuvant is a preparation added to the phytosanitary preparation at the moment of application and is used to reinforce the action of the latter.
The glyphosate used is a solution of glyphosate in the form of isopropylamine salt titrated to 620 g/l equivalent glyphosate acid.
The effectiveness of the preparation according to the invention is assessed by forming curves of biological effectiveness, that is by determining the ability of the preparations to reduce the biomass of a target plant as a function of the concentration of herbicide. […]
where Y is the dry biomass of the plant (plant cut at the base and dried 24 h at 110° C. in a ventilated heat chamber), X is the concentration of herbicide expressed in grams of glyphosate acid per hectare. C, D, a and b being factors determined by analysing the curve according to the least squares method. […] Its value is determined by applying the above equation with the parameters D, C, a and b of the curve of the herbicide without adjuvant (R=1) according to the least squares method. […]

## O=C(O)CNCP(=O)(O)O [Glyphosate (iso-propylamine salt), Glyphosate]
  R (factor of effectiveness): 1
